In patent US20030204862A1, “Inbred embryonic stem-cell derived mice” (priority 2002, published 2003):
Where “and” joins values, the source holds several entries; their conditions need not be identical. Equal entries are not always repeated.

Columns and labels:
[1] = system: undifferentiated ES cells; conditions: added to the culture medium; Burdon et al. (1999), WO 0015764; cited from earlier work
129SvEv/Tac blastocysts = assay: Derivation of ES cell lines from 129SvEv/Tac blastocysts in medium with MEK inhibitor; assay type: cell-based, mouse; conditions: PD98059 50 then 25 micromolar, 12 blastocysts, 39° C
Description: ES cell derivation was essentially performed as described by Hogan et al. (Manipulating the mouse embryo, CSHL Press 1994, pp253-89), except that cell culture was performed at 39° C. instead of 37° C. C57BL/6 (Janvier, France), 129SvEv/Tac (Taconic M&B, Denmark) or C57BL/6-APCMin (Jackson Laboratories, USA) male and female mice were mated to obtain blastocysts from fertilized females. The C57BL/6-APCMin mouse strain harbours a spontaneous mutation in the APC tumor suppressor gene (Su L K et al (1992) Science 256:668-670) and provides a genetic model for human hereditary colon cancer. Plug positive females were set aside, and 3 days later blastocysts were isolated by flushing their uteri. The blastocysts were further cultured overnight in CZB medium (Chatot et al. (1990) Biol. Reprod. 42:432-440) and then transferred into 12-well tissue culture plates (1 blastocyst per well), precoated with a monolayer of Mitomycin-C inactivated primary mouse embryonic fibroblasts, in standard ES cell culture medium (“standard conditions”) (Torres and Kuehn, Laboratory protocols for conditional gene targeting, Oxford University Press 1997), or in standard medium supplemented with the MEK inhibitor PD 98059 (NEB Biolabs) (50 micromolar concentration, diluted from a 50 millimolar stock in DMSO stored at −20° C.) or with the MEK inhibitor UO126 (10 micromolar concentration; NEB Biolabs). These cultures were incubated in a tissue culture incubator (Heraeus) for 6 days at 39° C. in a 10% CO2 atmosphere. […]
(§1) The sex of the cell lines was determined through Southern blot hybridisation of genomic DNA using a detection probe (pY353) specific to a Y-chromosome specific repeat (Bishop C E and Hatat D. (1987) Nucleic Acids Res 15, 2959-2969).
(§2) For the karyotype analysis of ES cell clones, 4×10^6 cells were cultured for 1 hour in the presence of 0.2 μg/ml Demicolchicin (Sigma), trypsinised, resuspended in a hypotonic (0.56%) KCl solution and incubated for 8 minutes at room temperature. […] The chromosome numbers of 20 suitable metaphase spreads were counted at 1000× magnification under oil immersion.

C57BL/6 blastocysts = assay: Derivation of ES cell lines from C57BL/6 blastocysts in medium with MEK inhibitor; assay type: cell-based, mouse; conditions: for Efficiency to derive ES lines / Number of established ES lines: C57BL/6, PD98059 50 then 25 micromolar, 18 blastocysts, UO126 10 then 4 micromolar, 40 blastocysts, 39° C; for higher efficiency of ES cell line derivation in the presence of the MEK inhibitor versus standard conditions: compared with standard conditions (Table 1)
Description: ES cell derivation was essentially performed as described by Hogan et al. (Manipulating the mouse embryo, CSHL Press 1994, pp253-89), except that cell culture was performed at 39° C. instead of 37° C. C57BL/6 (Janvier, France), 129SvEv/Tac (Taconic M&B, Denmark) or C57BL/6-APCMin (Jackson Laboratories, USA) male and female mice were mated to obtain blastocysts from fertilized females. The C57BL/6-APCMin mouse strain harbours a spontaneous mutation in the APC tumor suppressor gene (Su L K et al (1992) Science 256:668-670) and provides a genetic model for human hereditary colon cancer. Plug positive females were set aside, and 3 days later blastocysts were isolated by flushing their uteri. The blastocysts were further cultured overnight in CZB medium (Chatot et al. (1990) Biol. Reprod. 42:432-440) and then transferred into 12-well tissue culture plates (1 blastocyst per well), precoated with a monolayer of Mitomycin-C inactivated primary mouse embryonic fibroblasts, in standard ES cell culture medium (“standard conditions”) (Torres and Kuehn, Laboratory protocols for conditional gene targeting, Oxford University Press 1997), or in standard medium supplemented with the MEK inhibitor PD 98059 (NEB Biolabs) (50 micromolar concentration, diluted from a 50 millimolar stock in DMSO stored at −20° C.) or with the MEK inhibitor UO126 (10 micromolar concentration; NEB Biolabs). These cultures were incubated in a tissue culture incubator (Heraeus) for 6 days at 39° C. in a 10% CO2 atmosphere. The outgrown inner cell mass of each blastocyst was isolated with a pipette tip under low power magnification, transferred into a 50 microliter drop of Trypsin solution and incubated at 39° C. for 5-10 minutes. This cell clump was further dissociated by pipetting, the cells were transferred into tissue culture dishes and further propagated at 39° C. using standard ES cell culture conditions (Torres and Kuehn 1997, supra), with and without PD98059 (50 micromolar) or UO126 (10 micromolar). After the initial establishment of ES cell lines propagated in the presence of PD98059 (6 days after the first dissociation) the concentration of PD98059 was reduced to 25 micromolar, the concentration of UO 126 was reduced to 4 micromolar, and the cells were further propagated. The C57BL/6 line Bruce4 (Kontgen et al, (1993) Int Immunol. 5:957-964) was grown under standard conditions at 37° C.
as §1
For the karyotype analysis of ES cell clones, 4×10^6 cells were cultured for 1 hour in the presence of 0.2 μg/ml Demicolchicin (Sigma), trypsinised, resuspended in a hypotonic (0.56%) KCl solution and incubated for 8 minutes at room temperature. The swollen cells were sedimented by centrifugation, resuspended in freshly prepared fixative (3:1 mixture of ethanol/glacial acetic acid) and subsequently washed 2 times in fixative. Finally, the cells were resuspended in 0.5 ml fixative and dropped on glass slides precleaned with ethanol/acetic acid (19/1). After air drying, the metaphase spreads were stained for 5 minutes in a 2% solution of Giemsa's stain (Merck), washed in water, and air-dried. The chromosome numbers of 20 suitable metaphase spreads were counted at 1000× magnification under oil immersion.

[2] = system: 129 ES cell lines (129S6/SvEvTac); assay: ES mouse production by injection of 129 inbred ES cells into tetraploid blastocysts; assay type: in vivo; conditions: ES line ESAR-S6-PD.4 (129S6/SvEvTac) grown with PD98059, 335 injected tetraploid blastocysts
Description: (§3) Production of mice by tetraploid embryo complementation has been previously described (Eggan et al. (2001) PNAS 98:6209-6214). Briefly, embryo culture was carried out in microdrops on standard bacterial petri dishes (Falcon) under mineral oil (Sigma). Modified CZB media (Chatot et al, Supra) was used for embryo culture unless otherwise noted. Hepes buffered CZB was used for room temperature operations. After administration of hormones, superovulated B6D2F1 females were mated with B6D2F1 males. Fertilized zygotes were isolated from the oviduct and any remaining cumulus cells were removed with hyluronidase. After overnight culture, two-cell embryos were electrofused to produce one cell tetraploid embryos using a CF150-B cell fusion instrument from BLS (Budapest, Hungary) according to the manufacturers instructions. Embryos that had not undergone membrane fusion within 1 hour were discarded. Embryos were then cultured in vitro to the blastocyst stage. For microinjection, 5-6 blastocysts were placed in a drop of DMEM with 15% FCS under mineral oil. A flat tip, piezo actuated microinjection-pipette with an internal diameter of 12-15 μm was used to inject 15 ES cells into each blastocyst. After recovery, ten injected blastocysts were transferred to each uterine horn of 2.5 days post coitum, pseudopregnant NMRI females that had been mated with vasectomized males. For cesarian derivation, recipient mothers were sacrificed at E 19.5 and pups were quickly removed. Newborns that were alive and respirating were cross-fostered to lactating females. Three days later, the litters were controlled, and pups alive by that time were counted as surviving pups.

[3] = system: C57BL/6 ES cell lines (Apcmin mutant or Rosa(lacZ) knock-in); assay: Production of genetically engineered and mutant inbred ES mice by tetraploid blastocyst injection; assay type: in vivo, mouse; parameters: respirating pups efficiency: concentration or dose not given beside the values
Description: as §3
In order to generate inbred ES mice which harbour genetic alterations we pursued two different strategies. In the first protocol ES cell lines that were established and grown in media with UO 126 (see Example I) and which harbour the C57BL/6-APCMin mutation were injected into tetraploid blastocysts. […] In the second protocol the C57BL/6 ES cell line ESAR-B6-PD.4 was genetically modified in a predetermined manner through homologous recombination using a gene targeting vector. This vector (Rosa(lacZ) knock-in) introduces a beta-galactosidase reporter gene in conjunction with a selectable hygromycin resistance gene into the endogenous Rosa26 locus of the ES cell genome (Seibler et al., Nucleic Acids Res. 31, e12, 2003). This gene targeting vector was electroporated into ESAR-B6-PD4 cells exactly as described (Seibler et al., Nucleic Acids Res. 31, e12, 2003) and hygromycin resistant ES cell colonies were selected, isolated and further expanded. The genomic DNA of resistant colonies was isolated and tested by Southern blot analysis for the occurrence of a homologous recombination event in one of the Rosa26 alleles. Cells from one of the recombined ES cell clones (ESAR-B6-PD.4-R9 A-F2) was injected into tetraploid blastocysts.

C57BL/6 ES cell lines = assay: ES mouse production by injection of C57BL/6 inbred ES cells into tetraploid blastocysts; assay type: in vivo; conditions: for Number of respirating pups / respirating pups efficiency: E 19.5; for Number of surviving pups / surviving pups efficiency: alive three days later
Description: as §3

[4] = system: C57BL/6-APCMin blastocysts; conditions: UO126 10 then 4 micromolar, 33 blastocysts, 39° C
Description: ES cell derivation was essentially performed as described by Hogan et al. (Manipulating the mouse embryo, CSHL Press 1994, pp253-89), except that cell culture was performed at 39° C. instead of 37° C. C57BL/6 (Janvier, France), 129SvEv/Tac (Taconic M&B, Denmark) or C57BL/6-APCMin (Jackson Laboratories, USA) male and female mice were mated to obtain blastocysts from fertilized females. The C57BL/6-APCMin mouse strain harbours a spontaneous mutation in the APC tumor suppressor gene (Su L K et al (1992) Science 256:668-670) and provides a genetic model for human hereditary colon cancer. Plug positive females were set aside, and 3 days later blastocysts were isolated by flushing their uteri. […]
as §1, §2

[5] = Rosa(lacZ) knock-in ES clone ESAR-B6-PD.4 R9 B-G12 (C57BL/6 J) with PD98059, 162 injected tetraploid blastocysts
[6] = ES line ESAR-B6-PD.13 (C57BL/6J) grown with PD98059, 180 injected tetraploid blastocysts
[7] = ES line ESAR-B6-PD.3 (C57BL/6J) grown with PD98059, 372 injected tetraploid blastocysts
[8] = ES line ESAR-B6-PD.4 (C57BL/6J) grown with PD98059, 329 injected tetraploid blastocysts
[9] = Sum of three C57BL/6 ES lines grown with PD98059, 881 injected tetraploid blastocysts
[10] = ES line ESAR-APC 3 UO (C57BL/6 J Apcmin) grown with UO126, 405 injected tetraploid blastocysts
[11] = ES line ESAR-APC 9 UO (C57BL/6 J Apcmin) grown with UO126, 228 injected tetraploid blastocysts
[12] = Sum of two C57BL/6 J Apcmin ES lines grown with UO126, 633 injected tetraploid blastocysts

For `COc1cccc(-c2cc(=O)c3ccccc3o2)c1N` [PD98059, 2′-amino-3′-methoxyflavone], the “effect on growth of undifferentiated ES cells” value [1] is listed as “enhances the growth of undifferentiated ES cells”, the “Efficiency to derive ES lines” value (129SvEv/Tac blastocysts) is listed as 75% and the “Number of established ES lines” value (129SvEv/Tac blastocysts) is listed as 9. The “Efficiency to derive ES lines” value (129SvEv/Tac blastocysts; listed as PD 98059) was 75%, the “Efficiency to derive ES lines” value (C57BL/6 blastocysts) was 61% and the “Number of established ES lines” value (C57BL/6 blastocysts) was 11. For the same compound, the “Efficiency to derive ES lines” value (C57BL/6 blastocysts; listed as PD 98059) was 61%, the “higher efficiency of ES cell line derivation in the presence of the MEK inhibitor versus standard conditions” value (C57BL/6 blastocysts) was 5 fold and the “Number of respirating pups” value ([2]; E 19.5) was 29. The respirating pups efficiency ([2]; E 19.5) was 8.66%, the “Number of surviving pups” value ([2]; alive three days later) was 15 and the surviving pups efficiency ([2]; alive three days later) was 4.48%. The “Number of respirating pups” value [3, 5] was 4, the respirating pups efficiency [3, 5] was 2.47% and the “Number of respirating pups” value (C57BL/6 ES cell lines; [6]) was 4. The respirating pups efficiency (C57BL/6 ES cell lines; [6]) was 2.22%, the “Number of surviving pups” value (C57BL/6 ES cell lines; [6]) was 0 and the surviving pups efficiency (C57BL/6 ES cell lines; [6]) was 0.00%. The “Number of respirating pups” value (C57BL/6 ES cell lines; [7]) was 8, the respirating pups efficiency (C57BL/6 ES cell lines; [7]) was 2.15% and the “Number of surviving pups” value (C57BL/6 ES cell lines; [7]) was 1. The surviving pups efficiency (C57BL/6 ES cell lines; [7]) was 0.27%, the “Number of respirating pups” value (C57BL/6 ES cell lines; [8]) was 11 and the respirating pups efficiency (C57BL/6 ES cell lines; [8]) was 3.34%. For the same compound, the “Number of surviving pups” value (C57BL/6 ES cell lines; [8]) was 4, the surviving pups efficiency (C57BL/6 ES cell lines; [8]) was 1.22% and the “Number of respirating pups” value (C57BL/6 ES cell lines; [9]) was 23. The respirating pups efficiency (C57BL/6 ES cell lines; [9]) was 2.6% and 2.61%, the “Number of surviving pups” value (C57BL/6 ES cell lines; [9]) was 5 and the surviving pups efficiency (C57BL/6 ES cell lines; [9]) was 0.57%.
For `N#CC(=C(/N)Sc1ccccc1N)/C(C#N)=C(/N)Sc1ccccc1N` [UO126, bis[amino[(2-aminophenyl)thio]methylene]butanedinitrile], the “Efficiency to derive ES lines” value (C57BL/6 blastocysts) was 80%, the “Number of established ES lines” value (C57BL/6 blastocysts) was 32 and the “Efficiency to derive ES lines” value (C57BL/6 blastocysts; listed as UO 126) was 80%. For the same compound, the “higher efficiency of ES cell line derivation in the presence of the MEK inhibitor versus standard conditions” value (C57BL/6 blastocysts) was 5 fold, the “Number of respirating pups” value [3, 10] was 11 and the respirating pups efficiency [3, 10] was 2.72%. For the same compound, the “Number of respirating pups” value [3, 11] was 1, the respirating pups efficiency [3, 11] was 0.44% and the “Number of respirating pups” value [3, 12] was 12. The respirating pups efficiency [3, 12] was 1.90%, the respirating pups efficiency ([3]; Sum of two C57BL/6 J Apcmin ES lines grown with UO126, 633 injected tetraploid blastocysts, listed as UO 126) was 1.9% and the “Efficiency to derive ES lines” value [4] was 36%. The “Number of established ES lines” value [4] was 12.
